Reference: patent US20220162191A1, “SMALL MOLECULE MODULATORS OF IL-17” (LEO PHARMA A/S, priority 2019, published 2022)

biological target: T1, human IL-17AA (Homo sapiens, UniProt Q16552); test: IL-8 release assay in human epithelial keratinocytes adult (HEKa); type: cell-based; settings: 3 ng/ml human IL-17AA + 10 ng/ml human TNFalpha, 68-72 h, IL-8 by HTRF, read-out: Rel EC50 L-8 release assay
T1 construct: host or cells: HEK (human embryonic kidney) cells
T1 sequence (Q16552 24-155) 1: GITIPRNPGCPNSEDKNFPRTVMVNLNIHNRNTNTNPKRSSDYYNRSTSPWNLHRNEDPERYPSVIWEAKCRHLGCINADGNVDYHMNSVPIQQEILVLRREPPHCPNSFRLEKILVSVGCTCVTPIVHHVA
T1 sequence (Q16552 24-155) 2: T1 sequence (Q16552 24-155) 1
Outline: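 IL-8 secretion, quantified by HTRF (665/620 nm) as percent of controls, served as the readout after 68–72 h culture of HEKa cells with compound plus IL-17AA (3 ng/ml final) and TNF-alpha (10 ng/ml final). Four-parameter logistic curves gave relative IC50 and Emax.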

| Compound | EC50 |
| --- | --- |
| CC(C)n1cc(-c2cccc(C(c3ccccc3)C(NC(=O)OC3CC3)C(=O)Nc3ccc(-c4cncn4C)cc3)c2)ccc1=O (single isomer, unassigned; diastereomer 3) [Example 240, cyclopropyl N-[1-[[3-(1-isopropyl-6-oxo-3-pyridyl)phenyl]-phenyl-methyl]-2-[4-(3-methylimidazol-4-yl)anilino]-2-oxo-ethyl]carbamate (Diastereomer 3)] | > 1000 nM |
| CC(C)n1cc(-c2ccc3c(c2)[C@H]([C@H](NC(=O)c2ccnn2C)C(=O)Nc2ccc(-c4cncn4C)cc2)CC3)ccc1=O [Example 3, N-[(1S)-1-[(1R)-6-(1-isopropyl-6-oxo-3-pyridyl)indan-1-yl]-2-[4-(3-methylimidazol-4-yl)anilino]-2-oxo-ethyl]-2-methyl-pyrazole-3-carboxamide] | 100 to 1000 nM |
| Cc1n[nH]c(C)c1-c1ccc(NC(=O)[C@@H](NC(=O)OC2CC2)[C@@H]2CCc3ccc(-c4cc(N5C[C@@H]6C[C@H]5CO6)ncn4)cc32)cc1 [Example 374, cyclopropyl N-[(1S)-2-[4-(3,5-dimethyl-1H-pyrazol-4-yl)anilino]-1-[(1R)-6-[6-[(1S,4S)-2-oxa-5-azabicyclo[2.2.1]heptan-5-yl]pyrimidin-4-yl]indan-1-yl]-2-oxo-ethyl]carbamate] | 100 to 1000 nM |
| Cc1cnn(C)c1-c1ccc(NC(=O)[C@@H](NC(=O)C2(F)CC2)[C@H](C)c2cccc(-c3cncc(N4C[C@@H]5C[C@H]4CO5)n3)c2)cc1 [Example 343, N-[(1S,2R)-1-[[4-(2,4-dimethylpyrazol-3-yl)phenyl]carbamoyl]-2-[3-[6-[(1S,4S)-2-oxa-5-azabicyclo[2.2.1]heptan-5-yl]pyrazin-2-yl]phenyl]propyl]-1-fluoro-cyclopropanecarboxamide] | 100 to 1000 nM |
| Cn1cncc1-c1ccc(NC(=O)[C@H](Cc2cc(-c3cccc([C@@H]4COCCN4)c3)ccc2Cl)NC(=O)c2ccnn2C)cc1 [Example 216, N-[(1S)-1-[[2-chloro-5-[3-[(3R)-morpholin-3-yl]phenyl]phenyl]methyl]-2-[4-(3-methylimidazol-4-yl)anilino]-2-oxo-ethyl]-2-methyl-pyrazole-3-carboxamide] | 100 to 1000 nM |
| CN(C)C(=O)c1cc(-c2ccc(Cl)c(CC(NC(=O)c3ccnn3C)C(=O)Nc3ccc(-c4nncn4C)cc3)c2)ccc1O (centres unmarked) [Example 167, N-[1-[[2-chloro-5-[3-(dimethylcarbamoyl)-4-hydroxy-phenyl]phenyl]methyl]-2-[4-(4-methyl-1,2,4-triazol-3-yl)anilino]-2-oxo-ethyl]-2-methyl-pyrazole-3-carboxamide] | > 1000 nM |
| CC(C)OC(=O)N[C@@H](Cc1cc(-c2ccc(=O)n(C(C)C)c2)ccc1Cl)C(=O)Nc1ccc(-c2nncn2C)cc1 [Example 99, isopropyl N-[(1S)-1-[[2-chloro-5-(1-isopropyl-6-oxo-3-pyridyl)phenyl]methyl]-2-[4-(4-methyl-1,2,4-triazol-3-yl)anilino]-2-oxo-ethyl]carbamate] | > 1000 nM |
| N-[(1S)-2-[6-chloro-3-(1-isopropyl- 6-oxo-3-pyridyl)cyclohexa-2,4-dien- 1-yl]-1-[[4-(3-methylimidazol-4- yl)phenyl]carbamoyl]propyl]-2- methyl-pyrazole-3-carboxamide [Example 54] | 100 to 1000 nM |
| Cc1nocc1C(=O)N[C@@H](Cc1cc(-c2ccnc(C(=O)C3CC3)c2)ccc1Cl)C(=O)Nc1ccc(-c2nncn2C)cc1 [Example 85, N-[(1S)-1-[[2-chloro-5-[2-(cyclopropanecarbonyl)-4-pyridyl]phenyl]methyl]-2-[4-(4-methyl-1,2,4-triazol-3-yl)anilino]-2-oxo-ethyl]-3-methyl-isoxazole-4-carboxamide] | > 1000 nM |
| Cn1cncc1-c1ccc(NC(=O)C(Cc2cc(-c3ccnc(N4CC[C@H]4CO)c3)ccc2Cl)NC(=O)c2ccnn2C)cc1 (stereo partly drawn) [Example 188, N-[1-[[2-chloro-5-[2-[(2S)-2-(hydroxymethyl)azetidin-1-yl]-4-pyridyl]phenyl]methyl]-2-[4-(3-methylimidazol-4-yl)anilino]-2-oxo-ethyl]-2-methyl-pyrazole-3-carboxamide] | 100 to 1000 nM |
| Cc1n[nH]c(C)c1-c1ccc(NC(=O)[C@@H](NC(=O)c2ccnn2C)[C@@H]2CCc3ccc(-c4ccc(CN5CCCCC5)cc4)cc32)cc1 [Example 20, N-[(1S)-2-[4-(3,5-dimethyl-1H-pyrazol-4-yl)anilino]-2-oxo-1-[(1R)-6-[4-(1-piperidylmethyl)phenyl]indan-1-yl]ethyl]-2-methyl-pyrazole-3-carboxamide] | 100 to 1000 nM |
| CC(C)n1cc(-c2ccc(Cl)c(CC(NC(=O)c3conc3C(C)(C)C)C(=O)Nc3ccc(-c4nncn4C)cc3)c2)ccc1=O (centres unmarked) [Example 96, 3-tert-butyl-N-[1-[[2-chloro-5-(1-isopropyl-6-oxo-3-pyridyl)phenyl]methyl]-2-[4-(4-methyl-1,2,4-triazol-3-yl)anilino]-2-oxo-ethyl]isoxazole-4-carboxamide] | 100 to 1000 nM |

More lines, now with the values ahead:

| EC50 | Compound |
| --- | --- |
| 100 to 1000 nM | CC(C)n1cc(-c2ccc(Cl)c(C[C@H](NC(=O)OCc3ccccc3)C(=O)Nc3ccc(-c4nncn4C)cc3)c2)ccc1=O [Example 87, benzyl N-[(1S)-1-[[2-chloro-5-(1-isopropyl-6-oxo-3-pyridyl)phenyl]methyl]-2-[4-(4-methyl-1,2,4-triazol-3-yl)anilino]-2-oxo-ethyl]carbamate] |
| 100 to 1000 nM | Cc1ncn(C)c1-c1ccc(NC(=O)[C@@H](NC(=O)OC2CC2)[C@@H]2CCCc3ccc(-c4ccnc(N5CCN(C)CC5)c4)cc32)cc1 [Example 32, cyclopropyl N-[(1S)-2-[4-(3,5-dimethylimidazol-4-yl)anilino]-1-[(1R)-7-[2-(4-methylpiperazin-1-yl)-4-pyridyl]tetralin-1-yl]-2-oxo-ethyl]carbamate] |
| < 100 nM | Cc1cnn(C)c1-c1ccc(NC(=O)[C@@H](NC(=O)C2(F)CC2)[C@@H]2CCc3ccc(-c4cncc(N5C[C@@H]6C[C@H]5CO6)n4)cc32)cc1 [Example 379, N-[(1S)-2-[4-(2,4-dimethylpyrazol-3-yl)anilino]-1-[(1R)-6-[6-[(1S,4S)-2-oxa-5-azabicyclo[2.2.1]heptan-5-yl]pyrazin-2-yl]indan-1-yl]-2-oxo-ethyl]-1-fluoro-cyclopropanecarboxamide] |
| 100 to 1000 nM | Cc1[nH]ncc1-c1ccc(NC(=O)C(Cc2cc(-c3ccc(=O)n(C(C)C)c3)ccc2Cl)NC(=O)C2(F)CC2)cc1 (centres unmarked) [Example 129, N-[1-[[2-chloro-5-(1-isopropyl-6-oxo-3-pyridyl)phenyl]methyl]-2-[4-(5-methyl-1H-pyrazol-4-yl)anilino]-2-oxo-ethyl]-1-fluoro-cyclopropanecarboxamide] |
| < 100 nM | Cc1ncn(C)c1-c1ccc(NC(=O)[C@H](Cc2cc(-c3cnn(C(C)(C)C)c3)ccc2Cl)NC(=O)c2ccnn2C)cc1 [Example 182, N-[(1S)-1-[[5-(1-tert-butylpyrazol-4-yl)-2-chloro-phenyl]methyl]-2-[4-(3,5-dimethylimidazol-4-yl)anilino]-2-oxo-ethyl]-2-methyl-pyrazole-3-carboxamide] |
| < 100 nM | Cc1n[nH]c(C)c1-c1ccc(NC(=O)[C@@H](NC(=O)c2ccnn2C)[C@@H]2CCc3ccc(-c4ccc5c(c4)CCN(C)C5)cc32)cc1 [Example 15, N-[(1S)-2-[4-(3,5-dimethyl-1H-pyrazol-4-yl)anilino]-1-[(1R)-6-(2-methyl-3,4-dihydro-1H-isoquinolin-6-yl)indan-1-yl]-2-oxo-ethyl]-2-methyl-pyrazole-3-carboxamide] |
| < 100 nM | CC(C)n1cc(-c2ccc3c(c2)[C@H]([C@H](NC(=O)OC2CC2)C(=O)Nc2ccc(-c4cncn4C)c(O)c2)CCC3)ccc1=O [Example 31, cyclopropyl N-[(1S)-2-[3-hydroxy-4-(3-methylimidazol-4-yl)anilino]-1-[(1R)-7-(1-isopropyl-6-oxo-3-pyridyl)tetralin-1-yl]-2-oxo-ethyl]carbamate] |
| < 100 nM | Cc1ncn(C)c1-c1ccc(NC(=O)[C@@H](NC(=O)C2(F)CC2)[C@@H]2CCc3ccc(-c4ccnc(N5C[C@@H]6C[C@H]5CO6)c4)cc32)cc1O [Example 358, N-[(1S)-2-[4-(3,5-dimethylimidazol-4-yl)-3-hydroxy-anilino]-1-[(1R)-6-[2-[(1S,4S)-2-oxa-5-azabicyclo[2.2.1]heptan-5-yl]-4-pyridyl]indan-1-yl]-2-oxo-ethyl]-1-fluoro-cyclopropanecarboxamide] |
| < 100 nM | Cc1cnn(C)c1-c1ccc(NC(=O)[C@H](Cc2cc(-c3ccc(=O)n(C(C)C)c3)ccc2Cl)NC(=O)c2conc2C)cc1 [Example 118, N-[(1S)-1-[[2-chloro-5-(1-isopropyl-6-oxo-3-pyridyl)phenyl]methyl]-2-[4-(2,4-dimethylpyrazol-3-yl)anilino]-2-oxo-ethyl]-3-methyl-isoxazole-4-carboxamide] |
| < 100 nM | COCCOCCn1cc(-c2ccc(-c3ccc(Cl)c(CC(NC(=O)c4ccnn4C)C(=O)Nc4ccc(-c5c(C)n[nH]c5C)cc4)c3)cc2)nn1 (centres unmarked) [Example 313, N-[1-[[2-chloro-5-[4-[1-[2-(2-methoxyethoxy)ethyl]triazol-4-yl]phenyl]phenyl]methyl]-2-[4-(3,5-dimethyl-1H-pyrazol-4-yl)anilino]-2-oxo-ethyl]-2-methyl-pyrazole-3-carboxamide] |
| < 100 nM | Cc1n[nH]c(C)c1-c1ccc(NC(=O)[C@@H](NC(=O)c2ccnn2C)[C@@H]2CCc3ccc(-c4cnn(CC(C)(C)O)c4)cc32)cc1 [Example 13, N-[(1S)-2-[4-(3,5-dimethyl-1H-pyrazol-4-yl)anilino]-1-[(1R)-6-[1-(2-hydroxy-2-methyl-propyl)pyrazol-4-yl]indan-1-yl]-2-oxo-ethyl]-2-methyl-pyrazole-3-carboxamide] |
